Experimental data reported in ChEMBL document CHEMBL1250456, “Synthesis and binding ability of 1,2,3-triazole-based triterpenoid receptors for recognition of Hg(2+) ion” (Bioorg Med Chem Lett, 2010).
Activity calls are given as the source filed them. No cut-off for these calls is given here.

Assays:
[1] = Binding affinity to zinc ion by UV-vis titration analysis
[2] = Binding affinity to cadmium ion by UV-vis titration analysis
[3] = Binding affinity to mercury ion by Hildebrand-Benesi equation analysis
[4] = Binding affinity to copper ion by Hildebrand-Benesi equation analysis
[5] = Binding affinity to magnesium ion by UV-vis titration analysis

For `COC(=O)[C@@]1(C)CC[C@]2(C)CC[C@]3(C)C(=CC(=O)[C@@H]4[C@@]5(C)C[C@H](OC(=O)Cn6cc(COc7ccc8ccccc8c7C=O)nn6)[C@@H](OC(=O)Cn6cc(COc7ccc8ccccc8c7C=O)nn6)C(C)(C)[C@@H]5CC[C@]43C)[C@@H]2C1`, the Activity [1] was “inactive”, the Activity [2] was “inactive” and the Ka [3] was 2.7 ×10⁴ /M. For the same molecule, the Ka [4] was 5 ×10³ /M and the Activity [5] was “inactive”.

For `COC(=O)[C@@]1(C)CC[C@]2(C)CC[C@]3(C)C(=CC(=O)[C@@H]4[C@@]5(C)C[C@H](OC(=O)Cn6cc(COc7ccccc7C=O)nn6)[C@@H](OC(=O)Cn6cc(COc7ccccc7C=O)nn6)C(C)(C)[C@@H]5CC[C@]43C)[C@@H]2C1`, the Activity [1] was “inactive”, the Activity [2] was “inactive” and the Ka [3] was 3 ×10⁴ /M. For the same molecule, the Ka [4] was 1.6 ×10³ /M and the Activity [5] was “inactive”.
